The record followed here is paper PMC3116189, “Novel Natural Inhibitors of CYP1A2 Identified by in Silico and in Vitro Screening” (International Journal of Molecular Sciences, 2011).

The target in this series is T1, CYP1A2 (Homo sapiens, UniProt P05177).
T1 sequence (P05177 1-516): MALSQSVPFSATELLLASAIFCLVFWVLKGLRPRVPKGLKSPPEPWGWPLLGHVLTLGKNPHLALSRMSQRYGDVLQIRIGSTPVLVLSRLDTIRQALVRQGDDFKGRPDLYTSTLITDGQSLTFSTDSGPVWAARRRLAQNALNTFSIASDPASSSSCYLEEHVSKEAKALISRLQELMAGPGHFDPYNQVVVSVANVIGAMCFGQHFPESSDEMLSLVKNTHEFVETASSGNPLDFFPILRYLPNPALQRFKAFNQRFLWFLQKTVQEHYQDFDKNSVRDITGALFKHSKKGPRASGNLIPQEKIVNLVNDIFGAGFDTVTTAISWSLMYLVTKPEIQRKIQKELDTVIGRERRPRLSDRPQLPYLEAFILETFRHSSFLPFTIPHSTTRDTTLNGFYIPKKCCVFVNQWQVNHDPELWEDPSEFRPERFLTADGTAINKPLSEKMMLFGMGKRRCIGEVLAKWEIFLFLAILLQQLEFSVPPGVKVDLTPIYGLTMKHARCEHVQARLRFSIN
Description: in vitro. The format is biochemical.

Setting [1] is: human, recombinant enzyme, pH 7.4.
Setting [2] is: recombinant enzyme, pH 7.4, 1 μM active ingredient, Rh CYP1A2-mediated phenacetin O-deethylation, test dataset of 202 herb ingredients, read-out: % of Control Indication Activity (Mean).
The mark [3] stands for this setting: 1 μM active ingredient, Rh CYP1A2-mediated phenacetin O-deethylation, test dataset of 202 herb ingredients.
The mark [4] stands for this setting: human, recombinant human CYP1A2, pH 7.4, probe phenacetin (25 μM), O-deethylation to acetaminophen, 1 μM active ingredient, Rh CYP1A2-mediated phenacetin O-deethylation, test dataset of 202 herb ingredients, read-out: % of Control Indication Activity (Mean).

The structures appear in SMILES notation. Where two headings read alike, the source gives them in different places.
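Note: recombinant CYP1A2 incubated for 1 h at 37 °C, with the reaction started by an NADPH-generating system.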

Description: A total of 18 candidate compounds selected by pharmacophore and docking were examined for their potential to inhibit rhCYP1A2 phenacetin O-deethylation activity at a test concentration of 1 μM.
The basic incubation medium contained 100 mM potassium phosphate buffer (PH 7.4), 50 pmol recombinant human CYP1A2, 25 μM phenacetin and 1 μM active ingredients. The final incubation volume was 200 μL. After 5 min pre-incubation at 37 °C, the reaction was initiated by the addition of NADPH-generating system (5 mM MgCl2, 10 mM glucose 6-phosphates, 1 mM NADPH, and 2.5 U per mL glucose 6-phosphate dehydrogenase). Incubations were performed in a 37 °C shaking water bath for 1 h. Reactions were stopped by adding 0.4 mL of ice-cold acetonitrile containing 0.2 mg/L tinidazole (IS). […] The column was maintained at 35 °C and the injection volume was 10 μL.

As for `C=CCc1ccc(O)c(-c2ccc(O)c(CC=C)c2)c1` [Honokiol], the activity at 1 h, 1 μM under setting [1] is 33.6%. In the case of `COC[C@@]12CC[C@H](OC)[C@]34C(C([C@H](OC)[C@H]13)[C@]1(OC(C)=O)[C@H]3[C@@H](OC(=O)c5ccccc5)[C@](O)(C[C@H]34)[C@@H](OC)[C@@H]1O)N(C)C2` [Hypaconitine], the activity under setting [2] is greater than 90%.

On to `O=c1c(O[C@@H]2O[C@H](CO)[C@H](O)[C@H](O)[C@H]2O)c(-c2ccc(O)c(O)c2)oc2cc(O)cc(O)c12` [Hyperoside], for which the activity at 1 h, 1 μM under setting [1] was greater than 90%.

`COc1ccc(-c2oc3c(CC=C(C)C)c(O[C@@H]4O[C@H](CO)[C@@H](O)[C@H](O)[C@H]4O)cc(O)c3c(=O)c2O)cc1` [Icariside I]: the “% of Control Indication Activity (Mean)” value under setting [3] was greater than 90%. For the compound `COc1ccc(-c2oc3c(CC=C(C)C)c(O)cc(O)c3c(=O)c2O)cc1` [Icaritin], the activity at 1 h, 1 μM under setting [1] is greater than 90%.

As to `CC(C)=CCOc1c2occc2cc2ccc(=O)oc12` [Imperatorin], the activity under setting [2] is greater than 90%. For `O=C1/C(=C2\Nc3ccccc3C2=O)Nc2ccccc21` [Indigo], the activity at 1 h, 1 μM under setting [4] was greater than 90%.

As to `O=C1Nc2ccccc2/C1=C1/Nc2ccccc2C1=O` [Indirubin], under setting [4], the activity at 1 h, 1 μM was greater than 90%. Still for that read-out and setting: the value for `COc1cc(-c2coc3cc4c(c(OC)c3c2=O)OCO4)cc(OC)c1OC` [Irisflorentin] was greater than 90%.

For `COc1ccc(/C=C/C(=O)O)cc1O` [Isoferulic acid], the activity at 1 h, 1 μM under setting [4] is greater than 90%. With `COc1cc2ccc(=O)oc2c(OC)c1O` [Isofraxidin], the “% of Control Indication Activity (Mean)” value (recombinant enzyme) is greater than 90. `O=c1ccc2ccc3occc3c2o1` [Isopsoralen]: the activity at 1 h, 1 μM under setting [2] was greater than 90%. `COc1cc(-c2oc3cc(O)cc(O)c3c(=O)c2O)ccc1O` [Isorhamnetin]: under setting [2], the activity was greater than 90%. Turning to `COc1cc2c(cc1O)CC[n+]1cc3c(OC)c(OC)ccc3cc1-2.[Cl-]` [Jatrorrhizine Hydrochloride], under setting [3], the “% of Control Indication Activity (Mean)” value is recorded as greater than 90%. Consider `CC1=C2C(=O)[C@H]3[C@@H](CC=C4C[C@@H](O)CC[C@@]43C)[C@@H]2CC[C@]12O[C@@H]1C[C@H](C)CN[C@H]1[C@H]2C` [Jervine], for which, under setting [2], the activity at 1 h, 1 μM was greater than 90%. As for `C[C@@]1(CO)C[C@@H](O)C[C@@]2(C)[C@@H]3CC[C@](C)([C@@H](O)CO)C=C3CC[C@H]12` [Kirenol], under setting [4], the activity at 1 h, 1 μM is greater than 90%. Turning to `COc1cc2c(cc1OC)[C@@H](Cc1ccc(O)c(Oc3cc4c(cc3OC)CCN(C)[C@@H]4Cc3ccc(O)cc3)c1)N(C)CC2` [Liensinine], the “% of Control Indication Activity (Mean)” value under setting [3] is given as greater than 90%. On the same count and under the same terms, the value for `COc1ccc(-c2cc(=O)c3c(O)cc(O[C@@H]4O[C@H](CO[C@@H]5O[C@@H](C)[C@H](O)[C@@H](O)[C@H]5O)[C@@H](O)[C@H](O)[C@H]4O)cc3o2)cc1` [Linarin] was greater than 90%.

As for `C/C1=C\CC[C@]23O[C@H]2[C@@H](OC3=O)c2c(C)coc2C1` [Linderane], the activity at 1 h, 1 μM under setting [4] was greater than 90%.

For the compound `O=C1C[C@@H](c2ccc(O[C@@H]3O[C@H](CO)[C@@H](O)[C@H](O)[C@H]3O)cc2)Oc2cc(O)ccc21` [Liquiritin], the activity at 1 h, 1 μM under setting [1] is greater than 90%.

Regarding `COC(=O)C1=CO[C@@H](O[C@@H]2O[C@H](CO)[C@@H](O)[C@H](O)[C@H]2O)[C@@H]2[C@@H](C)[C@@H](O)C[C@H]12` [Loganin], the activity at 1 h, 1 μM under setting [4] is greater than 90%. Still for that read-out and setting: with `O=c1cc(-c2ccc(O)c(O)c2)oc2cc(O)cc(O)c12` [Luteolin] the figure was 87.4%.

Regarding `C=CCc1ccc(O)c(-c2cc(CC=C)ccc2O)c1` [Magnolol], the activity under setting [2] was greater than 90%. On the same count and under the same terms, with `O=C1CCC[C@@H]2[C@H]3CCCN4CCC[C@@H](CN12)[C@@H]34` [Matrine] the figure was greater than 90%. As to `CC1CCC(C(C)C)C(O)C1` (stereo not drawn) [Menthol], the activity at 1 h, 1 μM under setting [4] was greater than 90%.

Consider `COC[C@]12CN(C)[C@@H]3[C@@H]4[C@H](OC)[C@H]1[C@@]3([C@@H](OC)C[C@H]2O)[C@@H]1C[C@@]2(O)[C@H](OC(=O)c3ccccc3)[C@@H]1[C@]4(OC(C)=O)[C@@H](O)[C@@H]2OC` [Mesaconitine], for which the “% of Control Indication Activity (Mean)” value under setting [3] was greater than 90%. `CCCCCCCCCC(C)=O` [Methyl nonylketone]: the activity under setting [2] is greater than 90%. For the compound `COC(=O)c1c2c(c3ccccc3c1O)OC(C)(C)C=C2` [Mollugin], the activity at 1 h, 1 μM under setting [1] was greater than 90%. Regarding `CC1(C)CC[C@]2(C(=O)O)CC[C@]3(C)C(=CC[C@@H]4[C@@]5(C)CC[C@H](O[C@@H]6O[C@H](C(=O)O)[C@@H](O)[C@H](O[C@@H]7OC[C@@H](O)[C@H](O)[C@H]7O)[C@H]6O)C(C)(C)[C@@H]5CC[C@]43C)[C@@H]2C1` [Momordin Ic], the “% of Control Indication Activity (Mean)” value (recombinant enzyme) is on record as greater than 90. For `C[C@@H]1CCCCCCCCCCCCC(=O)C1` [Muscone], under setting [3], the “% of Control Indication Activity (Mean)” value is listed as greater than 90%. For `C[C@@H]1O[C@@H](O[C@H]2[C@H](Oc3cc(O)c4c(c3)O[C@H](c3ccc(O)cc3)CC4=O)O[C@H](CO)[C@@H](O)[C@@H]2O)[C@H](O)[C@H](O)[C@H]1O` [Naringin], under setting [1], the activity at 1 h, 1 μM is greater than 90%. `COc1cc2c[n+](C)c3c4cc5c(cc4ccc3c2cc1OC)OCO5` [Nitidine]: the activity at 1 h, 1 μM (human, recombinant enzyme, pH 7.4, 1 μM active ingredient, Rh CYP1A2-mediated phenacetin O-deethylation, test dataset of 202 herb ingredients, read-out: % of Control Indication Activity (Mean)) was greater than 90%. In the case of `CC(C)=CCC[C@](C)(O[C@@H]1O[C@H](CO)[C@@H](O)[C@H](O)[C@H]1O)[C@H]1CC[C@]2(C)[C@@H]1[C@H](O)C[C@@H]1[C@@]3(C)CC[C@H](O)C(C)(C)[C@@H]3[C@@H](O[C@@H]3O[C@H](CO)[C@@H](O)[C@H](O)[C@H]3O[C@@H]3OC[C@@H](O)[C@H](O)[C@H]3O)C[C@]12C` [Notoginsenoside R1], the “% of Control Indication Activity (Mean)” value under setting [3] is greater than 90%. As for `COc1cc2c3c(c1OC)-c1ccccc1C[C@H]3N(C)CC2` [Nuciferine], under setting [2], the activity amounted to 85.5%. `CC1(C)CC[C@]2(C(=O)O)CC[C@]3(C)C(=CC[C@@H]4[C@@]5(C)CC[C@H](O)C(C)(C)[C@@H]5CC[C@]43C)[C@@H]2C1` [Oleanol ic acid]: the activity at 1 h, 1 μM under setting [2] was greater than 90%. For the compound `C=C1C(=O)[C@]23[C@H](O)[C@H]1CC[C@H]2[C@@]12CO[C@]3(O)[C@@H](O)[C@@H]1C(C)(C)CC[C@@H]2O` [Oridonin], the activity at 1 h, 1 μM under setting [4] is greater than 90%. Turning to `COc1ccc2ccc(=O)oc2c1CC=C(C)C` [Osthole], the activity at 1 h, 1 μM under setting [1] is 86.8%. On to `C[C@@]12C[C@@]3(O)O[C@@H](O1)[C@]1(COC(=O)c4ccccc4)[C@H]3C[C@@]12O[C@@H]1O[C@H](CO)[C@@H](O)[C@H](O)[C@H]1O` [Paeoniflorin], for which, under setting [4], the activity at 1 h, 1 μM is greater than 90%. Turning to `COc1cc2c(cc1OC)-c1cc3ccc(OC)c(OC)c3c[n+]1CC2.[Cl-]` [Palmatine Hydrochloride], the “% of Control Indication Activity (Mean)” value (recombinant enzyme) was greater than 90. On to `C[C@H]1CC[C@@]2(O)C(C)(C)[C@@H]3CC[C@@]2(C)[C@H]1C3` [Patchouli alcohol], for which the “% of Control Indication Activity (Mean)” value under setting [3] is given as greater than 90%. On to `COc1ccc(-c2cc(=O)c3c(O)c(OC)c(O[C@@H]4O[C@H](CO[C@@H]5O[C@@H](C)[C@H](O)[C@@H](O)[C@H]5O)[C@@H](O)[C@H](O)[C@H]4O)cc3o2)cc1` [Pectolinarin], for which the activity at 1 h, 1 μM under setting [4] was greater than 90%. On to `COc1cc(O)c2c(c1)C(=O)c1cc(C)cc(O)c1C2=O` [Physcion], for which, under setting [4], the activity at 1 h, 1 μM was greater than 90%.

Turning to `COc1cc(C(=O)O[C@H]2[C@@H]3C=CO[C@@H](O[C@@H]4O[C@H](CO)[C@@H](O)[C@H](O)[C@H]4O)[C@@H]3[C@@]3(CO)O[C@@H]23)ccc1O` [Picroside-II], the activity at 1 h, 1 μM under setting [1] is greater than 90%. On to `O=C(/C=C/C=C/c1ccc2c(c1)OCO2)N1CCCCC1` [Piperine], for which the activity at 1 h, 1 μM under setting [2] was greater than 90%.

Regarding `OC[C@H]1O[C@@H](Oc2cc(O)cc(/C=C/c3ccc(O)cc3)c2)[C@H](O)[C@@H](O)[C@@H]1O` [Polydatin], under setting [4], the activity at 1 h, 1 μM was greater than 90%. As for `C/C=C(/C)C(=O)O[C@H]1[C@@H](OC(C)=O)c2c(ccc3ccc(=O)oc23)OC1(C)C` [Praeruptorin A], the “% of Control Indication Activity (Mean)” value under setting [3] is greater than 90%.

With `O=C(O)c1ccc(O)c(O)c1` [Protocatechuic acid], the activity at 1 h, 1 μM under setting [4] was greater than 90%.

For the compound `CN1CCc2cc3c(cc2C(=O)Cc2ccc4c(c2C1)OCO4)OCO3` [Protopine], under setting [1], the activity at 1 h, 1 μM was greater than 90%. Consider `COC(=O)C1=CC[C@@]23CC[C@@H]([C@@](C)(/C=C/C=C(\C)C(=O)O)OC2=O)[C@@]3(OC(C)=O)CC1` [Pseudolaric acid B], for which the activity at 1 h, 1 μM under setting [4] was greater than 90%. On to `O=c1ccc2cc3ccoc3cc2o1` [Psoralen], for which the activity at 1 h, 1 μM under setting [2] amounted to 10.8%. For the compound `O=c1c(-c2ccc(O)cc2)coc2c([C@@H]3O[C@H](CO)[C@@H](O)[C@H](O)[C@H]3O)c(O)ccc12` [Puerarin], under setting [1], the activity at 1 h, 1 μM was greater than 90%. Consider `CC(C)=C1CC[C@@H](C)CC1=O` [Pulegone], for which, under setting [4], the activity at 1 h, 1 μM is greater than 90%. Consider `O=c1c(O)c(-c2ccc(O)c(O)c2)oc2cc(O)cc(O)c12` [Quercetin], for which the activity at 1 h, 1 μM under setting [4] is greater than 90%. Regarding `C[C@@H]1O[C@@H](Oc2c(-c3ccc(O)c(O)c3)oc3cc(O)cc(O)c3c2=O)[C@H](O)[C@H](O)[C@H]1O` [Quercitrin], under setting [2], the activity was greater than 90%.
